The experiment concerns C. elegans N2 L1 growth, INVAPP movement imaging, 5 d. As to the kind of experiment: nematode growth block, anthelmintic potency – whole organism, N2 L1 worms, INVAPP movement imaging, dose response (AID 1259352).

The EC50 is the concentration that produces a half-maximal response.

For the compound `CNc1nc(NCCOc2ccccc2)c2sccc2n1`, the EC50 was 82 µM.
As to `COCCNc1nc(NCCOc2ccccc2Cl)c2sccc2n1`, the EC50 was 87 µM.
As for `CNc1nc(NCCOc2ccccc2Cl)c2sccc2n1`, the figure is 11 µM; as for `COc1ccccc1CNc1nc(NCCOc2ccccc2Cl)c2sccc2n1`, 7 µM.

Values taken from PubChem BioAssay AID1259352.
